Data reported in ChEMBL document CHEMBL5291721, “A preclinical secondary pharmacology resource illuminates target-adverse drug reaction associations of marketed drugs” (Nat Commun, 2023).

Legend:
[1] = target: Beta-2 adrenergic receptor (Homo sapiens, UniProt P07550)
[2] = target: Growth hormone secretagogue receptor type 1 (Homo sapiens, UniProt Q92847)
[3] = target: Delta-type opioid receptor (Homo sapiens, UniProt P41143)
Adenosine receptor A3 = target: T1, Adenosine receptor A3 (Homo sapiens, UniProt P0DMS8)
T1 sequence (P0DMS8 whole entry): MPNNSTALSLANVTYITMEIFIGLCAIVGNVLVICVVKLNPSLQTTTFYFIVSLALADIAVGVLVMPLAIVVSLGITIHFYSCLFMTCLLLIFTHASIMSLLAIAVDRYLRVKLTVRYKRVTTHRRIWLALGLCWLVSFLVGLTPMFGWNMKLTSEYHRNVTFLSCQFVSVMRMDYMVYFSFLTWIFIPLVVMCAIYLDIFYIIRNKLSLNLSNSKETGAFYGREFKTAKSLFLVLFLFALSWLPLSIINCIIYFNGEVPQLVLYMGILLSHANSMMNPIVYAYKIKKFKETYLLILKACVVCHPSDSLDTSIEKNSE

[4] = target: T2, Prostaglandin G/H synthase 1 (Rattus norvegicus, UniProt Q63921); assay type: functional
T2 sequence (Q63921 whole entry): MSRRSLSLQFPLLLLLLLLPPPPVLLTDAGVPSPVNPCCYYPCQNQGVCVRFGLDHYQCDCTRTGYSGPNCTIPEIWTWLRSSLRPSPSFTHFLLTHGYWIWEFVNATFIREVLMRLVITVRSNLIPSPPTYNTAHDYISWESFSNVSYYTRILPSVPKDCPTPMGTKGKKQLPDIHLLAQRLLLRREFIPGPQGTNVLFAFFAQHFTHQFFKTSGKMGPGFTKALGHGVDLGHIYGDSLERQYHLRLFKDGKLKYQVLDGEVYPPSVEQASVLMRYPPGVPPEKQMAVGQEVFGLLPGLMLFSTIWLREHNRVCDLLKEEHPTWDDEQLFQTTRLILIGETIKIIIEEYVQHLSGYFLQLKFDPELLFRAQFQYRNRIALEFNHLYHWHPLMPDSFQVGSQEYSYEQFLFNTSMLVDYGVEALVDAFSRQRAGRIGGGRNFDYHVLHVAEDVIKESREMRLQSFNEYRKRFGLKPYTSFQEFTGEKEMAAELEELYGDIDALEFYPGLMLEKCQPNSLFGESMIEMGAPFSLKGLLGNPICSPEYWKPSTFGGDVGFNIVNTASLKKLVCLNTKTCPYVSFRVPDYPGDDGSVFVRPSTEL

[5] = target: Beta-1 adrenergic receptor (Homo sapiens, UniProt P08588); assay type: functional
Vasopressin V1a receptor = Vasopressin V1a receptor (Homo sapiens, UniProt P37288)
[6] = target: T3, Muscarinic acetylcholine receptor M2 (Homo sapiens, UniProt P08172); assay type: functional, cell-based
T3 sequence (P08172 whole entry): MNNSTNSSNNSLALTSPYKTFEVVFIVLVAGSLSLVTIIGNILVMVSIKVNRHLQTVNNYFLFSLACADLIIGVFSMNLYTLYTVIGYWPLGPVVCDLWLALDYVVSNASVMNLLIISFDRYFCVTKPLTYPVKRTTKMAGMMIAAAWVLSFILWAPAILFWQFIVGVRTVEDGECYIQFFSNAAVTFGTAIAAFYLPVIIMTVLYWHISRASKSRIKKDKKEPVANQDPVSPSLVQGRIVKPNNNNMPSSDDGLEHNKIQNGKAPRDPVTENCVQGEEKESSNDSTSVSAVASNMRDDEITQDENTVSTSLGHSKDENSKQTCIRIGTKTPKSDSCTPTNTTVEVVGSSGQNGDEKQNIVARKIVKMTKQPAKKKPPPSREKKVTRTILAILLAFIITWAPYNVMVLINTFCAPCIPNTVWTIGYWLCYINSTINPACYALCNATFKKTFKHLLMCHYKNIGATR

Cannabinoid receptor 1 = Cannabinoid receptor 1 (Homo sapiens, UniProt P21554); assay type: functional, cell-based
Mu-type opioid receptor = Mu-type opioid receptor (Homo sapiens, UniProt P35372)
[7] = target: T4, Prostaglandin G/H synthase 1 (Homo sapiens, UniProt P23219); assay type: functional
[8] = target: T4, Prostaglandin G/H synthase 1; assay type: functional; remark: listed apart in the source
D(3) dopamine receptor = D(3) dopamine receptor (Homo sapiens, UniProt P35462)
Also: assay procedure not described here.

Chain of Beta-2 adrenergic receptor (P07550 whole entry): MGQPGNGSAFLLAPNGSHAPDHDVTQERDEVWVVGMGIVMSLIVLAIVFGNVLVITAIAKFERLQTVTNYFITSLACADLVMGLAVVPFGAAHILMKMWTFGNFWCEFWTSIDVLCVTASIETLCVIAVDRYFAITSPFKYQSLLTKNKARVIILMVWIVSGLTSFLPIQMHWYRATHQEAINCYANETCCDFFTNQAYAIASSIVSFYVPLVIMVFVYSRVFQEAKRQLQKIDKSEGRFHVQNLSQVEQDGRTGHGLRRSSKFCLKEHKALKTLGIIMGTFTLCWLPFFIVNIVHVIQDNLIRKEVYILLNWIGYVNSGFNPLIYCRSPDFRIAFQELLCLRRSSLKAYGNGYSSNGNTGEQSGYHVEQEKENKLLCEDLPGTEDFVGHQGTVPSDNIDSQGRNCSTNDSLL
Chain of Beta-1 adrenergic receptor (P08588 whole entry): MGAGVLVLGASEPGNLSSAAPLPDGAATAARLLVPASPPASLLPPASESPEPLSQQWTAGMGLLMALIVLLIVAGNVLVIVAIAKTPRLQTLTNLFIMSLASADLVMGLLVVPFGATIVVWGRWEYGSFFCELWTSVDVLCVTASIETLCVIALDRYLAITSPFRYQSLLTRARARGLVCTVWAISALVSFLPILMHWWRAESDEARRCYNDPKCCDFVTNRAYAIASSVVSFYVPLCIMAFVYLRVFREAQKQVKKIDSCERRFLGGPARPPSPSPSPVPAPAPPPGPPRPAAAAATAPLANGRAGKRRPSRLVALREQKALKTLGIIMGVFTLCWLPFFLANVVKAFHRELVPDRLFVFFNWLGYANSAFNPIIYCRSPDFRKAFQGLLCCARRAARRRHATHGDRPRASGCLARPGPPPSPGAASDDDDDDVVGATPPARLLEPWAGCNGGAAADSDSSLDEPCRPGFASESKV
Chain of Delta-type opioid receptor (P41143 whole entry): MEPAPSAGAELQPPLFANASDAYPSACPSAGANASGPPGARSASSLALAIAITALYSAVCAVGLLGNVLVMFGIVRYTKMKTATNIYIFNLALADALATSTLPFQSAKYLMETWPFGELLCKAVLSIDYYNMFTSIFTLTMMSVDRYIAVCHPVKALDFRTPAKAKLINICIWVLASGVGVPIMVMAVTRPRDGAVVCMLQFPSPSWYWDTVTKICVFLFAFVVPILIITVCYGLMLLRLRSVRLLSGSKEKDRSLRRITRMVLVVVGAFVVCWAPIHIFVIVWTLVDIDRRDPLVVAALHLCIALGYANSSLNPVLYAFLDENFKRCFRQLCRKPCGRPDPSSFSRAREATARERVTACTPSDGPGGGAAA
T4 sequence (P23219 whole entry): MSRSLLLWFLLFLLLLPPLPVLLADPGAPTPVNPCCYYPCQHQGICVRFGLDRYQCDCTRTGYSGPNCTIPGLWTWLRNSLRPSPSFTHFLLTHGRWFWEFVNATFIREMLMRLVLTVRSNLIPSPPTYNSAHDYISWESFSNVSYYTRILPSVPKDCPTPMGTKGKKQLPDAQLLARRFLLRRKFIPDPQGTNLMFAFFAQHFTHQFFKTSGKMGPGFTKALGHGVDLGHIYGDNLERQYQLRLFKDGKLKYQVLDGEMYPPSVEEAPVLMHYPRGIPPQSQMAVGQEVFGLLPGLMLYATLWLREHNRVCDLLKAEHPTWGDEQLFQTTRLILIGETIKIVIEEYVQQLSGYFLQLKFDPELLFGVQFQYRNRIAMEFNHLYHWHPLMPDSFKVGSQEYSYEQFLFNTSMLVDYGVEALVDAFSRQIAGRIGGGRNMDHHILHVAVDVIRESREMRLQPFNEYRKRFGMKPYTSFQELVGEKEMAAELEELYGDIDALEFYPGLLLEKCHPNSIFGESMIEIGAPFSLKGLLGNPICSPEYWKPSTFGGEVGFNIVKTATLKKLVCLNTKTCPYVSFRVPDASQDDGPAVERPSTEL
Chain of Growth hormone secretagogue receptor type 1 (Q92847 whole entry): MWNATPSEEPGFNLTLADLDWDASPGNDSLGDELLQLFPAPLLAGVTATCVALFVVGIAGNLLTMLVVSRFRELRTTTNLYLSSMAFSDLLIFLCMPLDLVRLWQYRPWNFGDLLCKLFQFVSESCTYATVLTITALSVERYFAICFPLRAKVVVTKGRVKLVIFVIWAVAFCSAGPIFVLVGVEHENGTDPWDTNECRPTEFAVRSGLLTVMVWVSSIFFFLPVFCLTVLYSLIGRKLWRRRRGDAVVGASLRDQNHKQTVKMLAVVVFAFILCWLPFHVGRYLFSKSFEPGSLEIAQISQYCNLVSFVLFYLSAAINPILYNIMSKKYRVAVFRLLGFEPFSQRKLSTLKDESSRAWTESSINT
Chain of Mu-type opioid receptor (P35372 whole entry): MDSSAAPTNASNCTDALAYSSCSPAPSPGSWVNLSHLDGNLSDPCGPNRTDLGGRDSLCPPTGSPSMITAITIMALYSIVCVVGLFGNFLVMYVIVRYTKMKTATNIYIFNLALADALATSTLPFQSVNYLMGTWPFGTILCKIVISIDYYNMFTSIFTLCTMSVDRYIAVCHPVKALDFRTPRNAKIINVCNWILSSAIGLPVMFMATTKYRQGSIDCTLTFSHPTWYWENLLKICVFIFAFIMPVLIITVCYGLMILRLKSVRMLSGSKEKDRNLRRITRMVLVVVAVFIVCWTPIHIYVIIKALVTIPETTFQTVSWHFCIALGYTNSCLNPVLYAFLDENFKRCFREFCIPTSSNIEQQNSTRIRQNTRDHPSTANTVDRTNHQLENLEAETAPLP
Chain of Vasopressin V1a receptor (P37288 whole entry): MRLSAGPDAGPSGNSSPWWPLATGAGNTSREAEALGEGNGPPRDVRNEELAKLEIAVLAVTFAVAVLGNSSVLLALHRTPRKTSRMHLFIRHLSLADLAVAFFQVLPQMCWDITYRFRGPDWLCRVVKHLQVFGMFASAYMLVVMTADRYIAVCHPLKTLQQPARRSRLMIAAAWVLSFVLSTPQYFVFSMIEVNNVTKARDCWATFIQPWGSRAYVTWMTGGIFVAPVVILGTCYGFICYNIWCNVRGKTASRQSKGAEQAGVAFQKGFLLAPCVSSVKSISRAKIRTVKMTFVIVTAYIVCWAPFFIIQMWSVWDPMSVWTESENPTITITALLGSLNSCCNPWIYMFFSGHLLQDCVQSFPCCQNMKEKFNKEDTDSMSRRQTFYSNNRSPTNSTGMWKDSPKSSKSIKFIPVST
Chain of Cannabinoid receptor 1 (P21554 whole entry): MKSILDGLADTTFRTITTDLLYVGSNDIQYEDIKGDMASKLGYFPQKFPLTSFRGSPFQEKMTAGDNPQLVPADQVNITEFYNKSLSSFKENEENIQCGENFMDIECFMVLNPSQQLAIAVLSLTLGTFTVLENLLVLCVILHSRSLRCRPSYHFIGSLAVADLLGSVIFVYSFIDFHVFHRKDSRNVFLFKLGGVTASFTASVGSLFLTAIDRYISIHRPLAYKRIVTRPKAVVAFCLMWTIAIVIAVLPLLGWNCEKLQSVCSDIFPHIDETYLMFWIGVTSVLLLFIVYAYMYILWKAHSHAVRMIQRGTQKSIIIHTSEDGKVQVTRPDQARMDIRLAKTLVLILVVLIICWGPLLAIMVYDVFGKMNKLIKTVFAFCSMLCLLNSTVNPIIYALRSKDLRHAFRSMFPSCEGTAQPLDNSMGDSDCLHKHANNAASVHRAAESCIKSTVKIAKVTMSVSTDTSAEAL
Chain of D(3) dopamine receptor (P35462 whole entry): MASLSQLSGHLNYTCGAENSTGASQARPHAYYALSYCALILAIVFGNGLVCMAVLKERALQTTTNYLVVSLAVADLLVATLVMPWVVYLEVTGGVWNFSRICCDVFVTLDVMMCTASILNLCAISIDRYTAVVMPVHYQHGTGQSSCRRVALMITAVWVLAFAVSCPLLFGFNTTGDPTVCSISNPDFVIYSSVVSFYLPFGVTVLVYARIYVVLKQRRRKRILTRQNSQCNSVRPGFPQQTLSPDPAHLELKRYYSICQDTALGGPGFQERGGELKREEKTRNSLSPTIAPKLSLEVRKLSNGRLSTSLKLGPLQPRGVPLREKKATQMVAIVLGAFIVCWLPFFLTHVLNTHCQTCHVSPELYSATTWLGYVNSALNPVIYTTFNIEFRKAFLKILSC

Compound	AC50 [1]	AC50 [2]	AC50 [3]	AC50 (Adenosine receptor A3)	AC50 [4]	AC50 [5]	AC50 (Vasopressin V1a receptor)	AC50 [6]	AC50 (Cannabinoid receptor 1)	AC50 (Mu-type opioid receptor)	AC50 [7]	AC50 [8]	AC50 (D(3) dopamine receptor)
C[N+]1(C)CCC(=C(c2ccccc2)c2ccccc2)CC1	> 10 µM	> 30 µM	> 30 µM	> 30 µM	> 10 µM	> 10 µM	> 30 µM	–	–	–	–	–	–
Cc1ccccc1-n1c(CF)nc2ccc(N)cc2c1=O [AFLOQUALONE]	> 30 µM	> 30 µM	> 30 µM	> 30 µM	27.9 µM	> 30 µM	> 30 µM	> 10 µM	–	–	–	–	–
CCC1(c2ccc(N)cc2)CCC(=O)NC1=O (configuration not stated) [AMINOGLUTETHIMIDE]	–	> 30 µM	> 30 µM	> 30 µM	> 30 µM	> 30 µM	–	> 30 µM	> 30 µM	–	–	–	–
CC(Cc1cccc(C(F)(F)F)c1)NCCOC(=O)c1ccccc1 (configuration not stated) [BENFLUOREX]	–	28 µM	> 30 µM	28 µM	–	5.7 µM	> 30 µM	–	> 30 µM	–	–	–	–
CCOC(=O)c1ccc(N)cc1 [BENZOCAINE]	> 10 µM	> 10 µM	> 30 µM	> 10 µM	> 10 µM	> 10 µM	–	> 10 µM	–	–	–	–	–
Cc1cn([C@H]2O[C@@H](CO)[C@H](O)[C@H]2F)c(=O)[nH]c1=O [CLEVUDINE]	–	–	–	–	–	–	–	–	–	> 30 µM	> 30 µM	> 30 µM	> 30 µM
CC(=O)[C@H]1CC[C@H]2[C@@H]3C=CC4=CC(=O)CC[C@@]4(C)[C@@H]3CC[C@]12C [DYDROGESTERONE]	–	–	–	–	–	–	–	–	–	> 30 µM	> 30 µM	> 30 µM	> 30 µM
CN(C)CCCN1c2ccccc2CCc2ccccc21 [IMIPRAMINE]	> 10 µM	> 30 µM	> 10 µM	30.8 µM	> 30 µM	> 10 µM	> 10 µM	> 10 µM	> 30 µM	–	–	–	–
O=C(CCC/C=C\C[C@@H]1[C@@H](CC[C@@H](O)CCc2ccccc2)[C@H](O)C[C@@H]1O)OCCCCO[N+](=O)[O-] [LATANOPROSTENE BUNOD]	–	–	–	–	–	–	–	–	–	> 30 µM	> 30 µM	13.5 µM	> 30 µM
Cc1ccccc1N1C(=O)c2cc(S(N)(=O)=O)c(Cl)cc2NC1C (configuration not stated) [METOLAZONE]	> 10 µM	> 10 µM	> 30 µM	> 10 µM	> 10 µM	> 10 µM	–	> 10 µM	–	–	–	–	–
COC(=O)C[C@](O)(CCCC(C)(C)O)C(=O)O[C@@H]1C(OC)=C[C@]23CCCN2CCc2cc4c(cc2[C@H]13)OCO4 [OMACETAXINE MEPESUCCINATE]	–	–	–	–	–	–	–	–	–	> 30 µM	> 10 µM	> 30 µM	> 30 µM
CC(C)c1cccc(C(C)C)c1O [PROPOFOL]	–	> 30 µM	> 30 µM	> 30 µM	> 3 µM	> 30 µM	–	> 30 µM	> 30 µM	–	–	–	–
C[C@]12CCC(=O)C[C@@H]1CC[C@@H]1[C@@H]2CC[C@]2(C)[C@@H](O)CC[C@@H]12 [STANOLONE]	> 30 µM	> 30 µM	> 30 µM	> 30 µM	> 30 µM	> 30 µM	–	> 30 µM	–	–	–	–	–
COc1cc(C)c2c(Oc3cccc(C(F)(F)F)c3)c(OC)cc(NC(C)CCCN)c2n1 (configuration not stated) [TAFENOQUINE]	–	–	–	–	–	–	–	–	–	20.6 µM	9.38 µM	3.81 µM	2.57 µM
O=C1OC(OC(=O)c2cccnc2Nc2cccc(C(F)(F)F)c2)c2ccccc21 (configuration not stated) [TALNIFLUMATE]	–	> 30 µM	> 30 µM	> 30 µM	> 30 µM	> 30 µM	> 30 µM	> 30 µM	> 30 µM	–	–	–	–
COc1ccc2c(C(=S)N(C)CC(=O)O)cccc2c1C(F)(F)F [TOLRESTAT]	–	–	–	–	–	–	–	–	–	> 30 µM	> 30 µM	> 30 µM	> 30 µM
